The values that follow come from patent publication US20190022039A1, “COMPOUND HAVING ENHANCING ACTIVITY FOR GLUCAGON-LIKE PEPTIDE-1 RECEPTOR ACTIONS” (AJINOMOTO CO., INC., priority 2016, published 2019).

pEC50: −log10 of the molar value.

The assay has as its target T1, human GLP-1R (Homo sapiens, UniProt P43220).
T1 construct: expressed in transfected cells; host or cells: PEAK RAPID-derived Gα15-trans48 LD stably expressing cells (PRG48), transiently transfected with Lipofectamine 2000
The experiment in a line: GLP-1 receptor in vitro calcium assay (intracellular free calcium concentration change induced via GLP-1 receptor). The format is cell-based. The settings on record: for pEC50: PRG48 cells transfected with human GLP-1R, compound added with 250 pM GLP-1, Ca2+ response ΔF/F, read-out: Ca EC50 value; for GLP-1 receptor action enhancing activity (vs BETP): intensity compared to BETP, activity of BETP as 1. The procedure: The supernatant was removed by centrifugation (1,200 rpm, 3 min), and the cells were suspended at 4×10^6 cells/mL in 5% FBS DMEM/Ham's F-12. 1.0 mL thereof was seeded in a 15 cm dish and cultured (37° C., 5% CO2) overnight. The next day, the medium of the cultured PRG48 cells was replaced with 5% FBS DMEM/Ham's F-12 medium (30 mL), human GLP-1R gene mixture solution (GLP-1R/pc.DNA3.1(+) 60 μg) prepared using 6.0 mL of Opti-MEM (invitrogen) and 120 μL of Lipofectamin 2000 (invitrogen) was slowly added to the cells, and cultured (37° C., 5% CO2) for 6 hr to introduce the gene. […] The cells were counted, suspended at 0.5×10^6 cells/mL in 5% FBS DMEM/Ham's F-12 medium, and seeded in each well of D-Lysine coat 96 well plate (BD Bioscience) at 7.0×10^4 cells. After static adhesion at room temperature for 1 hr, the cells were cultured overnight (37° C., 5% CO2). The medium in the Cultured 96 well was entirely discarded, 150 μL of intracellular calcium measurement staining solution Calcium assay kit Express (Molecular Device) diluted 80-fold with Assay buffer (20 mM HEPES, 146 mM NaCl, 1 mM MgSO4, 1.39 mM glucose, 1 mM CaCl2, 2.5 mM Probenecid, 0.05% Casein Enzymatic Hydrolysate) was added, and the mixture was stood at 37° C. for 30 min, and then at room temperature for 45 min to perform staining. After staining, 250 pM GLP-1 and the compound were added and Ca^2+ response was observed by using FDSSμCELL (Hamamatsu Photonics K.K.). Each evaluation compound was dissolved in DMSO, further diluted with Assay buffer and used.
For evaluation, the fluorescence values (Ex480:Em540) before and after addition were measured, and changes in the intracellular free calcium concentration produced via GLP-1R receptor by the addition were quantitatively examined. For the measurement and analysis of the fluorescence values, a soft (FDSS7000EX) attached to the FDSSμCELL was used, and ΔF/F value ((maximum fluorescence value after stimulation−minimum fluorescence value after stimulation)/fluorescence value before stimulation) was calculated. Using the obtained ΔF/F values, EC50 value was calculated by Prism5.

T1 sequence (P43220 24-463): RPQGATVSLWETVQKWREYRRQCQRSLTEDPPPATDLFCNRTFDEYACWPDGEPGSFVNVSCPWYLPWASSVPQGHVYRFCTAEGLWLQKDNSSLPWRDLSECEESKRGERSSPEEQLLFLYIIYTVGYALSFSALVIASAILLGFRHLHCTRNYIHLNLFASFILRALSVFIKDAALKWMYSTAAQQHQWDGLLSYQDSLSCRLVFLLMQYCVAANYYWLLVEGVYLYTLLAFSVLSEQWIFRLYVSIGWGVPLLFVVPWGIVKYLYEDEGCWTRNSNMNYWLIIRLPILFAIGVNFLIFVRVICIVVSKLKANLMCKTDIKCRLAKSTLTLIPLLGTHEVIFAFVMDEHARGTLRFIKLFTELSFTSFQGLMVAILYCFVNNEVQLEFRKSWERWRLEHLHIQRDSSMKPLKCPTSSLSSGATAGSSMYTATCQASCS

Broadly, the pEC50 is the negative decadic logarithm of the EC50, by convention in mol/L. Turning to `CC(C)CCCC(C)NC(=O)[C@@H](CC1CCCCC1)NC(=O)N(CC(=O)O)c1ccc(NS(=O)(=O)c2ccc(C(C)(C)C)cc2)cc1` (stereo partly drawn) [Compound 108, 2-(4-[(4-tert-butylphenyl)sulfonylamino]-N-{[(1R)-1-(cyclohexylmethyl)-2-(1,5-dimethylhexylamino)-2-oxo-ethyl]carbamoyl}anilino)acetic acid], the pEC50 was 8.82 and the “GLP-1 receptor action enhancing activity (vs BETP)” value stood at 17107.

Consider `CCCCCCCN(C(=O)N[C@H](Cc1ccccc1)C(=O)OC(C)(C)C)c1ccc(NS(=O)(=O)c2ccc(C)cc2)cc1` [Compound 85, tert-butyl (2R)-2-({heptyl-[4-(p-tolylsulfonylamino)phenyl]carbamoyl}amino)-3-phenyl-propanoate], for which the pEC50 was 8.15 and the “GLP-1 receptor action enhancing activity (vs BETP)” value is on record as 3578. The like results for `CCCCCCNc1ccc(S(=O)(=O)Nc2cccc(NC(=O)N[C@H](Cc3c[nH]c4ccccc34)C(=O)NC(C)CCCC(C)C)c2)cn1` (some centres unmarked) [Compound 110] were, in that order, 8.36 and 5731. On to `CC(C)CCCC(C)NC(=O)[C@H](Cc1ccc(Cl)cc1)NC(=O)Nc1ccc(NS(=O)(=O)c2ccc(C(C)(C)C)cc2)cc1` (some centres unmarked) [Compound 58], for which the negative logarithm of the EC50 (pEC50) was 8.34. For `CC(C)(C)c1ccc(S(=O)(=O)Nc2ccc(NC(=O)N[C@H](CC3CCCCC3)c3nc(C(C)(C)C)no3)cc2)cc1` [Compound 82], the pEC50 was 7.80 and the “GLP-1 receptor action enhancing activity (vs BETP)” value is 1606.

Consider `CCCCCCN(C)C(=O)[C@@H](Cc1ccccc1)NC(=O)Nc1ccc(NS(=O)(=O)c2ccc(C)cc2)cc1` [Compound 53], for which the pEC50 is 6.55 and the “GLP-1 receptor action enhancing activity (vs BETP)” value stood at 91.

With `CCCCCCNC(=O)[C@@H](Cc1ccc(F)cc1)NC(=O)Nc1ccc(NS(=O)(=O)c2ccc(C)cc2)cc1` [Compound 17], the pEC50 was 6.28 and the “GLP-1 receptor action enhancing activity (vs BETP)” value is recorded as 48. Take `Cc1ccc(S(=O)(=O)Nc2ccc(NC(=O)N[C@H](Cc3ccccc3)C(=O)OC(C)(C)C)cc2F)cc1` [Compound 87, tert-butyl (2R)-2-{[3-fluoro-4-(p-tolylsulfonylamino)phenyl]carbamoylamino}-3-phenyl-propanoate]: the pEC50 was 5.96 and the “GLP-1 receptor action enhancing activity (vs BETP)” value turned out to be 23.

In the case of `Cc1ccc(S(=O)(=O)Nc2ccc(NC(=O)N[C@H](Cc3ccccc3)C(=O)NC3CCCCCCC3)cc2)cc1` [Compound 52], the negative-log EC50 (pEC50) was 6.77 and the “GLP-1 receptor action enhancing activity (vs BETP)” value is recorded as 144. The like results for `CC(C)CCCC(C)NC(=O)[C@@H](CC1CCCCC1)NC(=O)Nc1cccc(NS(=O)(=O)c2ccc(C(C)(C)C)cc2)c1` (some centres unmarked) [Compound 92] were, in that order, 7.62 and 1028. The like results for `CCCCCCCNC(=O)[C@@H](Cc1ccccc1)NC(=O)Nc1ccc(NS(=O)(=O)c2ccc(C)cc2)cc1` [Compound 6] were, in that order, 6.89 and 187. Consider `Cc1ccc(S(=O)(=O)Nc2ccc(NC(=O)N[C@H](CC(C)C)C(=O)OC(C)(C)C)cc2)cc1` [Compound 64], for which the negative logarithm of the EC50 (pEC50) was 5.80 and the “GLP-1 receptor action enhancing activity (vs BETP)” value is given as 15.

As to `CCCCC(CC)CNC(=O)[C@@H](Cc1c[nH]c2ccccc12)NC(=O)Nc1ccc(NS(=O)(=O)c2ccc(C)cc2)cc1` (some centres unmarked) [Compound 40], the pEC50 was 6.89 and the “GLP-1 receptor action enhancing activity (vs BETP)” value was 199. Consider `CCCOc1ccc(-c2noc([C@H](CC3CCCCC3)NC(=O)Nc3ccc(NS(=O)(=O)c4ccc(C(C)(C)C)cc4)cc3)n2)cc1` [Compound 83], for which the negative logarithm of the EC50 (pEC50) is 8.37 and the “GLP-1 receptor action enhancing activity (vs BETP)” value is 5794. `CCCCC(CC)CNC(=O)[C@@H](Cc1ccccc1)NC(=O)Nc1ccc(NS(=O)(=O)c2ccc(C(C)(C)C)cc2)cc1` (some centres unmarked) [Compound 36]: the negative-log EC50 (pEC50) was 7.74 and the “GLP-1 receptor action enhancing activity (vs BETP)” value came to 1425. As to `Cc1ccc(S(=O)(=O)Nc2ccc(NC(=O)N[C@H](Cc3ccccc3)c3nnc(S)n3-c3ccccc3)cc2)cc1` [Compound 90], the pEC50 was 5.85 and the “GLP-1 receptor action enhancing activity (vs BETP)” value is 18.

For `CCCCC(CC)CNC(=O)[C@@H](Cc1c[nH]c2ccccc12)NC(=O)Nc1ccc(NS(=O)(=O)c2ccc(C(C)(C)C)cc2)cc1F` (stereo partly drawn) [Compound 98, (2R)-2-[[4-[(4-tert-butylphenyl)sulfonylamino]-2-fluoro-phenyl]carbamoylamino]-N-(2-ethylhexyl)-3-(1H-indol-3-yl)propanamide], the pEC50 is 7.14 and the “GLP-1 receptor action enhancing activity (vs BETP)” value worked out at 350.

`Cc1ccc(S(=O)(=O)Nc2ccc(NC(=O)N[C@H](Cc3ccccc3)C(=O)NC3CCCCCC3)cc2)cc1` [Compound 23]: the negative logarithm of the EC50 (pEC50) was 6.43 and the “GLP-1 receptor action enhancing activity (vs BETP)” value was 68. The like results for `CCCCCCNc1ccc(S(=O)(=O)Nc2cccc(NC(=O)N[C@H](CC3CCCCC3)C(=O)NC(C)CCCC(C)C)c2)cn1` (some centres unmarked) [Compound 109] were, in that order, 7.96 and 2311. The like results for `Cc1ccc(S(=O)(=O)Nc2ccc(NC(=O)N[C@H](Cc3ccccc3)C(=O)NCC3CCCC3)cc2)cc1` [Compound 27] were, in that order, 5.96 and 23. As for `CCCCCCNC(=O)[C@@H](Cc1c[nH]c2ccccc12)NC(=O)Nc1ccc(NS(=O)(=O)c2ccc(C)cc2)cc1` [Compound 21], the pEC50 was 6.33 and the “GLP-1 receptor action enhancing activity (vs BETP)” value was 53.

With `CCCCC(CC)CNC(=O)[C@@H](CC1CCCCC1)NC(=O)Nc1ccc(N(CCCSC)S(=O)(=O)c2ccc(C(C)(C)C)cc2)cc1` (some centres unmarked) [Compound 111], the pEC50 is 8.48 and the “GLP-1 receptor action enhancing activity (vs BETP)” value came to 7694. The like results for `COC(C)(C)CNC(=O)[C@@H](Cc1ccccc1)NC(=O)Nc1ccc(NS(=O)(=O)c2ccc(C)cc2)cc1` [Compound 9] were, in that order, 6.19 and 39. Take `COCCCNC(=O)[C@@H](CC1CCCCC1)NC(=O)Nc1ccc(NS(=O)(=O)c2ccc(C(C)(C)C)cc2)cc1` [Compound 107]: the pEC50 was 6.14 and the “GLP-1 receptor action enhancing activity (vs BETP)” value amounted to 35. The like results for `CC(C)(C)OC(=O)[C@H](Cc1ccccc1)NC(=O)Nc1ccc(NS(=O)(=O)c2ccc(C(C)(C)C)cc2)cc1` [Compound 73] were, in that order, 6.51 and 83. The like results for `CCCCCCNC(=O)[C@@H](CC1CCCCC1)NC(=O)Nc1cccc(NS(=O)(=O)c2ccc(C(C)(C)C)cc2)c1` [Compound 93] were, in that order, 7.35 and 555. The like results for `CC(C)CCCC(C)NC(=O)[C@H](CC1CCCCC1)NC(=O)Nc1ccc(NS(=O)(=O)c2ccc(C(C)(C)C)cc2)cc1` (some centres unmarked) [Compound 56] were, in that order, 8.42 and 6569.

With `CC(C)(C)OC(=O)[C@H](Cc1ccccc1)NC(=O)Nc1ccc(NS(=O)(=O)c2ccc(C(F)(F)F)cc2)cc1` [Compound 81], the pEC50 is 6.00 and the “GLP-1 receptor action enhancing activity (vs BETP)” value was 24. The like results for `CCCCCNC(=O)[C@@H](Cc1ccccc1)NC(=O)Nc1ccc(NS(=O)(=O)c2ccc(C)cc2)cc1` [Compound 35] were, in that order, 6.18 and 38. The like results for `Cc1ccc(S(=O)(=O)Nc2ccc(NC(=O)N[C@H](CC(C)C)C(=O)N[C@H](Cc3ccccc3)c3nc(C(C)(C)C)no3)cc2)cc1` [Compound 89] were, in that order, 6.59 and 98.

For the compound `CCCCCCNc1ccc(S(=O)(=O)Nc2ccc(NC(=O)N[C@H](CC3CCCCC3)C(=O)NC(C)CCCC(C)C)cc2)cn1` (some centres unmarked) [Compound 105], the pEC50 is 6.36 and the “GLP-1 receptor action enhancing activity (vs BETP)” value was determined as 56. Take `Cc1ccc(S(=O)(=O)Nc2ccc(NC(=O)N[C@H](CC(C)C)C(=O)NCCC3CCCCC3)cc2)cc1` [Compound 48]: the pEC50 was 6.55 and the “GLP-1 receptor action enhancing activity (vs BETP)” value was found to be 92. The like results for `Cc1ccc(S(=O)(=O)Nc2ccc(NC(=O)N[C@H](Cc3ccccc3)C(=O)NC(C)(C)C34CC5CC(CC(C5)C3)C4)cc2)cc1` [Compound 61] were, in that order, 7.82 and 1710.
